Tests used:
colon flora = assay: Stability in the presence of colon flora (content in colon of rat); type: in vitro ADME, SD rat; conditions: male, rat, pH 6.8
Experimental: A phosphate buffer solution with a pH of 7.0 was formulated, and then CO2 was introduced to the solution to adjust the pH to 6.8. Then, the content in colon of a male SD rat (body weight: 180-220 g) was placed in a water bath at 37° C., and added into the phosphate buffer solution with a pH of 6.8 as prepared above under the protection of N2 to a concentration of 20% (w/v). The buffer solution was kept in an oxygen-free environment. Then, the test Compound 17 was added to the buffer solution, and the solution was stirred uniformly.
Supernatant was analyzed with HPLC, where the amount of each ingredient was calculated by normalization.
Note: in the above table, “T14.148 (%)” represents the percentage of peak area of the material with a retention time of 14.148 min “T14.713 (%)” represents the percentage of peak area of the material with a retention time of 14.713 min. “T16.392 (%)” represents the percentage of peak area of the material with a retention time of 16.392 min. “T22.624 (%)” represents the percentage of peak area of the material with a retention time of 22.624 min.
(§1) Other typical example compounds were tested for stability according to the above method, and the test results are shown in Table 8 below.

[1] = Test on stability in mediums in vitro (buffer solutions with different pH, simulated intestinal fluid, simulated gastric fluid); type: physicochemical
Experimental: At 37° C., Compound 17 was incubated in different mediums (buffer solutions with different pH, a simulated intestinal fluid containing pancreatin, and simulated gastric fluid containing pepsin).
as §1

C[C@]12C=CC(=O)C=C1CC[C@@H]1[C@@H]2C(=O)C[C@@]2(C)[C@H]1CC[C@]2(O)C(=O)COC1(CO)O[C@H](CO)[C@@H](O[C@@H]2O[C@H](CO)[C@H](O)[C@H](O)[C@H]2O)[C@@H]1O (stereo partly drawn) [Compound 17, 17-hydroxyl-21-{[4-O-(β-D-galactopyranosyl)-D-fructofuranosyl]oxy}pregna-1,4-diene-3,11,20-trione]
Compound 17 (%) (colon flora; SD, 0 h): 84.8%
T14.148 (%) (percentage of peak area of the material with a retention time of 14.148 min) (colon flora; SD, 0 h): 13.5%
T22.624 (%) (percentage of peak area of the material with a retention time of 22.624 min) (colon flora; SD, 0 h): 0.0%
Compound 17 (%) (colon flora; SD, 1 h): 49.0%
T14.148 (%) (percentage of peak area of the material with a retention time of 14.148 min) (colon flora; SD, 1 h): 42.5%
T22.624 (%) (percentage of peak area of the material with a retention time of 22.624 min) (colon flora; SD, 1 h): 0.0%
Compound 17 (%) (colon flora; SD, 2 h): 25.3%
T22.624 (%) (percentage of peak area of the material with a retention time of 22.624 min) (colon flora; SD, 2 h): 0.0%
T22.624 (%) (percentage of peak area of the material with a retention time of 22.624 min) (colon flora; SD, 3 h): 0.0%
Compound 17 (%) (colon flora; SD, 20 h): 0.0%
T22.624 (%) (percentage of peak area of the material with a retention time of 22.624 min) (colon flora; SD, 20 h): 7.8%
Prednisone (%) (released from Compound 17) (colon flora; Sprague-Dawley (SD), 0 h): 1.7%
T14.713 (%) (percentage of peak area of the material with a retention time of 14.713 min) (colon flora; Sprague-Dawley (SD), 0 h): 0.0%
T16.392 (%) (percentage of peak area of the material with a retention time of 16.392 min) (colon flora; Sprague-Dawley (SD), 0 h): 0.0%
Prednisone (%) (released from Compound 17) (colon flora; Sprague-Dawley (SD), 1 h): 8.1%
T14.713 (%) (percentage of peak area of the material with a retention time of 14.713 min) (colon flora; Sprague-Dawley (SD), 1 h): 0.0%
T16.392 (%) (percentage of peak area of the material with a retention time of 16.392 min) (colon flora; Sprague-Dawley (SD), 1 h): 0.0%
Prednisone (%) (released from Compound 17) (colon flora; Sprague-Dawley (SD), 2 h): 14.7%
T14.148 (%) (percentage of peak area of the material with a retention time of 14.148 min) (colon flora; Sprague-Dawley (SD), 2 h): 59.1%
T14.713 (%) (percentage of peak area of the material with a retention time of 14.713 min) (colon flora; Sprague-Dawley (SD), 2 h): 0.0%
T16.392 (%) (percentage of peak area of the material with a retention time of 16.392 min) (colon flora; Sprague-Dawley (SD), 2 h): 0.0%
Prednisone (%) (released from Compound 17) (colon flora; Sprague-Dawley (SD), 3 h): 21.2%
T14.148 (%) (percentage of peak area of the material with a retention time of 14.148 min) (colon flora; Sprague-Dawley (SD), 3 h): 65.5%
T14.713 (%) (percentage of peak area of the material with a retention time of 14.713 min) (colon flora; Sprague-Dawley (SD), 3 h): 0.0%
T16.392 (%) (percentage of peak area of the material with a retention time of 16.392 min) (colon flora; Sprague-Dawley (SD), 3 h): 0.0%
Prednisone (%) (released from Compound 17) (colon flora; Sprague-Dawley (SD), 20 h): 39.7%
T14.148 (%) (percentage of peak area of the material with a retention time of 14.148 min) (colon flora; Sprague-Dawley (SD), 20 h): 12.7%
T14.713 (%) (percentage of peak area of the material with a retention time of 14.713 min) (colon flora; Sprague-Dawley (SD), 20 h): 19.2%
T16.392 (%) (percentage of peak area of the material with a retention time of 16.392 min) (colon flora; Sprague-Dawley (SD), 20 h): 6.4%
Compound 17 (%) (colon flora; Sprague-Dawley, 3 h): 11.3%
percentage of the compound degraded (colon flora; Sprague-Dawley, 3 h): about 90%
Compound 17 (%) ([1]; Acetate buffer solution, pH 4.0, 37° C., 0 h): 99.6%
Compound 17 (%) ([1]; Acetate buffer solution, pH 4.0, 37° C., 0.5 h): 99.6%
Compound 17 (%) ([1]; Acetate buffer solution, pH 4.0, 37° C., 1 h): 99.5%
Compound 17 (%) ([1]; Acetate buffer solution, pH 4.0, 37° C., 1.5 h): 99.4%
Compound 17 (%) ([1]; Acetate buffer solution, pH 4.0, 37° C., 4 h): 99.2%
Compound 17 (%) ([1]; Acetate buffer solution, pH 4.0, 37° C., 20 h): 97.1%
Compound 17 (%) ([1]; Acetate buffer solution, pH 4.0, 37° C., 24 h): 96.5%
Compound 17 (%) ([1]; Hydrochloric acid solution, pH 1.2, 37° C., 0 h): 96.0%
Compound 17 (%) ([1]; Hydrochloric acid solution, pH 1.2, 37° C., 0.5 h): 47.1%
Compound 17 (%) ([1]; Hydrochloric acid solution, pH 1.2, 37° C., 1 h): 22.1%
Compound 17 (%) ([1]; Hydrochloric acid solution, pH 1.2, 37° C., 2 h): 4.5%
Compound 17 (%) ([1]; Hydrochloric acid solution, pH 1.2, 37° C., 3 h): 1.0%
Compound 17 (%) ([1]; Hydrochloric acid solution, pH 2.0, 37° C., 0 h): 99.7%
Compound 17 (%) ([1]; Hydrochloric acid solution, pH 2.0, 37° C., 0.5 h): 93.3%
Compound 17 (%) ([1]; Hydrochloric acid solution, pH 2.0, 37° C., 1 h): 86.5%
Compound 17 (%) ([1]; Hydrochloric acid solution, pH 2.0, 37° C., 1.5 h): 80.1%
Compound 17 (%) ([1]; Hydrochloric acid solution, pH 2.0, 37° C., 2 h): 74.6%
Compound 17 (%) ([1]; Hydrochloric acid solution, pH 2.0, 37° C., 3 h): 64.5%
Compound 17 (%) ([1]; Hydrochloric acid solution, pH 2.0, 37° C., 4 h): 55.3%
Compound 17 (%) ([1]; Hydrochloric acid solution, pH 2.0, 37° C., 8 h): 30.8%
Compound 17 (%) ([1]; Hydrochloric acid solution, pH 2.0, 37° C., 24 h): 2.5%
Compound 17 (%) ([1]; Phosphate buffer solution, pH 5.8, 37° C., 0 h): 99.5%
Compound 17 (%) ([1]; Phosphate buffer solution, pH 5.8, 37° C., 1 h): 97.3%
Compound 17 (%) ([1]; Phosphate buffer solution, pH 5.8, 37° C., 6 h): 99.4%
Compound 17 (%) ([1]; Phosphate buffer solution, pH 5.8, 37° C., 8 h): 99.5%
Compound 17 (%) ([1]; Phosphate buffer solution, pH 5.8, 37° C., 33 h): 99.3%
Compound 17 (%) ([1]; Phosphate buffer solution, pH 6.8, 37° C., 0 h): 97.3%
Compound 17 (%) ([1]; Phosphate buffer solution, pH 6.8, 37° C., 1 h): 97.5%
Compound 17 (%) ([1]; Phosphate buffer solution, pH 6.8, 37° C., 6 h): 99.0%
Compound 17 (%) ([1]; Phosphate buffer solution, pH 6.8, 37° C., 8 h): 99.0%
Compound 17 (%) ([1]; Phosphate buffer solution, pH 6.8, 37° C., 33 h): 97.6%
Compound 17 (%) ([1]; Phosphate buffer solution, pH 7.8, 37° C., 0 h): 97.5%
Compound 17 (%) ([1]; Phosphate buffer solution, pH 7.8, 37° C., 1 h): 97.6%
Compound 17 (%) ([1]; Phosphate buffer solution, pH 7.8, 37° C., 6 h): 97.6%
Compound 17 (%) ([1]; Phosphate buffer solution, pH 7.8, 37° C., 8 h): 97.6%
Compound 17 (%) ([1]; Phosphate buffer solution, pH 7.8, 37° C., 33 h): 97.7%
Compound 17 (%) ([1]; Simulated gastric fluid (containing pepsin) (pH 2.0), 37° C., 0 h): 97.0%
Compound 17 (%) ([1]; Simulated gastric fluid (containing pepsin) (pH 2.0), 37° C., 0.5 h): 53.6%
Compound 17 (%) ([1]; Simulated gastric fluid (containing pepsin) (pH 2.0), 37° C., 1 h): 28.9%
Compound 17 (%) ([1]; Simulated gastric fluid (containing pepsin) (pH 2.0), 37° C., 1.5 h): 15.6%
Compound 17 (%) ([1]; Simulated gastric fluid (containing pepsin) (pH 2.0), 37° C., 2 h): 7.0%
Compound 17 (%) ([1]; Simulated gastric fluid (containing pepsin) (pH 2.0), 37° C., 3 h): 2.1%
Compound 17 (%) ([1]; Simulated intestinal fluid (containing pancreatin) (pH 6.8), 37° C., 0 h): 97.6%
Compound 17 (%) ([1]; Simulated intestinal fluid (containing pancreatin) (pH 6.8), 37° C., 1 h): 97.4%
Compound 17 (%) ([1]; Simulated intestinal fluid (containing pancreatin) (pH 6.8), 37° C., 6 h): 97.7%
Compound 17 (%) ([1]; Simulated intestinal fluid (containing pancreatin) (pH 6.8), 37° C., 8 h): 97.7%
Compound 17 (%) ([1]; Simulated intestinal fluid (containing pancreatin) (pH 6.8), 37° C., 33 h): 96.2%
Compound 17 (%) ([1]; Water (pH 6.2), 37° C., 0 h): 97.6%
Compound 17 (%) ([1]; Water (pH 6.2), 37° C., 1 h): 97.6%
Compound 17 (%) ([1]; Water (pH 6.2), 37° C., 6 h): 97.6%
Compound 17 (%) ([1]; Water (pH 6.2), 37° C., 8 h): 98.2%
Compound 17 (%) ([1]; Water (pH 6.2), 37° C., 33 h): 98.0%
percentage of remaining Compound 17 ([1]; pH 2.0 or higher, within 1.5 hours, 37° C.): greater than 80%

From patent US11491232B2, “Lactuloside compounds and preparation and use thereof” (Fruithy Holdings Limited, priority 2017, dated 2022)
